Data reported in US20250382305A1 (PTC THERAPEUTICS, INC., priority 2022, published 2025).

Tests used:
[1] = test system: Total ATXN3 (tATXN3) protein; assay: Endogenous Total ATXN3 (tATXN3) Protein Assay (MSD immunoassay of cell lysates); assay type: cell-based; conditions: average IC50, total ATXN3 protein in cell lysate after 48 h with compound (Table 1)
Method: Endogenous Total ATXN3 (tATXN3) Protein Assay
Meso Scale Discovery (MSD) 96-well or 384-well plates were coated overnight at 4° C. with Ataxin 3 mouse monoclonal antibody (Invitrogen, MA3-082) at a concentration of 0.5 μg/mL in PBS (30 μL per well). Plates were then washed three times with 300 μL wash buffer (0.05% TWEEN®-20, polyethylene glycol sorbitan monolaurate, in PBS) and blocked (Meso Scale Diagnostics, R93BA-1; 5% BSA in PBS) for 2 h at RT with rotational shaking and then washed three times with wash buffer.
(§1) Test compounds were serially diluted 3.16-fold in 100% DMSO to generate a 7-point concentration curve. Aliquots of 0.5 μL of diluted compounds were transferred to a 96-well flat bottom plate by a liquid handler. An aliquot of 0.5 μL DMSO was also transferred to separate wells and used as controls. Duplicate samples were set up for each compound concentration and for the DMSO control.
Cells were thawed and incubated in cell culture media (DMEM, 10% FBS, and 1% antibiotic cocktail) for 72 h. Cells were trypsinized, counted, and re-suspended to a concentration of 100,000 cells/mL in cell culture media. A 100 μL aliquot of the cell suspensions were plated at 10,000 cells per well in the compound containing 96 well microtiter plate and incubated for in a cell culture incubator (37° C., 5% CO2, 100% relative humidity). After 48 h, the medium was removed and 50-100 μL of lysis buffer (Meso Scale Diagnostics, R60TX-2) containing 1× halt protease inhibitor cocktail of (Thermo Scientific, Halt™ Protease Inhibitor Cocktail, 78430) per well was added to cells to provide a “cell lysate”. The plate was placed on a shaker at 4° C. for 30 minutes, then stored at −80° C.
Cell lysate samples (25 μL) were transferred to the antibody-coated MSD plate and incubated overnight at 4° C. After removal of the lysates, the plate was washed three times with wash buffer, and 25 μL of Ataxin 3 recombinant rabbit monoclonal antibody (Invitrogen, #702788) secondary antibody (diluted to 0.25 μg/mL in 0.05% TWEEN®-20 in blocking buffer) was added to each well and incubated with shaking for 1-2 h at room temperature. Following incubation with the secondary antibody, the wells were rinsed with wash buffer and then 25 μL of Anti Rabbit Antibody Goat SULFO-TAG Labeled (Meso Scale Diagnostics, R32AB-1) detecting antibody (diluted to […] in 0.05% TWEEN®-20 in blocking buffer) was added to each well and incubated with shaking for 1 h at room temperature. After rinsing three times with wash buffer, 150 μL of Read Buffer T with surfactant (tris-based buffer containing tripropylamine, Meso Scale Diagnostics, R92TC-1) were added to each empty well, and the plate was imaged on a SI 6000 imager (MSD) according to manufacturers' instructions provided for 96- or 384-well plates.
(§2) An average IC50>1 μM is indicated by one star (*), between >0.3 μM and ≤1 μM is indicated by two stars (**), between >0.03 μM and ≤0.3 μM is indicated by three stars (***), and ≤0.03 μM is indicated by four stars (****).

ATXN3 pre-mRNA = assay: RT-qPCR Assay to Quantify Exon 4 Skipping in ATXN3 pre-mRNA in Cells; assay type: cell-based; conditions: percent exon 4 skipping in ATXN3 pre-mRNA, RT-qPCR of cell lysates; average IC50
Method: RT-qPCR Assay to Quantify Exon 4 Skipping in ATXN3 pre-mRNA in Cells
as §1
Cells were thawed and incubated in cell culture media (DMEM, 10% FBS, and 1% antibiotic cocktail) for 72 h. Cells were trypsinized, counted, and re-suspended to a concentration of 100,000 cells/mL in cell culture media. A 100 μL aliquot of the cell suspensions were plated at 10,000 cells per well in the compound containing 96 well microtiter plate and incubated for in a cell culture incubator (37° C., 5% CO2, 100% relative humidity).
After 24 h, media was aspirated from the cells and 50 μL of the RCL2 lysis buffer (10 mM Tris-HCL pH 7.4, 150 mM NaCl, 0.33% IGEPAL® CA-630) was added to each well and incubated at RT for 1 min. Chilled nuclease free water (50 μL per well) was added and the plates were immediately transferred on ice. After 1 min on ice, plates were frozen at −80° C. overnight.
Preparation of RT-qPCR Reaction Mixture:
An aliquot of 2 μL/well of the cell lysates was transferred using the liquid handler to the Armadillo 384-Well PCR plate containing 8 μL/well of the RT-qPCR reaction mixture that was prepared as detailed above. The plates were then sealed with MicroAmp™ Optical Adhesive Film followed by spinning down for 1 min and placed in the CFX384 thermocycler (BioRad).
The RT-qPCR was carried out at the following temperatures for the indicated time: • Step 1: 48° C. (30 min) • Step 2: 95° C. (10 min) • Step 3: 95° C. (15 sec) • Step 4: 60° C. (1 min); then, repeated Steps 3 and 4 for a total of 40 cycles.
The percent exon 4 skipping was calculated for each dose of compound treatment using Equations 1 and 2.
Data were fit to a dose response curve and the IC50 was interpolated using XLfit® statistical and curve fitting package.
as §2

Row | Substance | IC50 [1] [nM] | IC50 (ATXN3 pre-mRNA) [nM]
1 | 2-((1R,6R)-6-aminocyclohex-3-en-1-yl-2,2,3,4,5,5-d6)-3,5-dichloro-N-(furan-2-ylmethyl)thieno[3,2-b]pyridin-7-amine and 2-((1S,6S)-6-aminocyclohex-3-en-1-yl-2,2,3,4,5,5-d6)-3,5-dichloro-N-(furan-2-ylmethyl)thieno[3,2-b]pyridin-7-amine [Compound 180] | ≤ 30 | ≤ 30
2 | 2-((1R,6R)-6-aminocyclohex-3-en-1-yl-2,2,3,4,5,5-d6)-5-chloro-N-(furan-2-ylmethyl)-3-methylthieno[3,2-b]pyridin-7-amine and 2-((1S,6S)-6-aminocyclohex-3-en-1-yl-2,2,3,4,5,5-d6)-5-chloro-N-(furan-2-ylmethyl)-3-methylthieno[3,2-b]pyridin-7-amine [Compound 171] | ≤ 30 | ≤ 30
3 | 2-((1R,6R)-6-aminocyclohex-3-en-1-yl-2,2,3,4,5,5-d6)-N-benzyl-5-chloro-3-methylthieno[3,2-b]pyridin-7-amine and 2-((1S,6S)-6-aminocyclohex-3-en-1-yl-2,2,3,4,5,5-d6)-N-benzyl-5-chloro-3-methylthieno[3,2-b]pyridin-7-amine [Compound 278] | 30 to 300 | 30 to 300
4 | 2-((1R,6S)-6-amino-2,2-difluorocyclohexyl)-3-bromo-5-chloro-N-(thiophen-2-ylmethyl)thieno[3,2-b]pyridin-7-amine and 2-((1S,6R)-6-amino-2,2-difluorocyclohexyl)-3-bromo-5-chloro-N-(thiophen-2-ylmethyl)thieno[3,2-b]pyridin-7-amine [Compound 269] | 30 to 300 | 30 to 300
5 | 2-((1R,6S)-6-amino-2,2-difluorocyclohexyl)-3-bromo-N-((E)-but-2-en-1-yl)-5-chlorothieno[3,2-b]pyridin-7-amine and 2-((1S,6R)-6-amino-2,2-difluorocyclohexyl)-3-bromo-N-((E)-but-2-en-1-yl)-5-chlorothieno[3,2-b]pyridin-7-amine [Compound 425] | > 1000 | 300 to 1000
6 | 2-((1R,6S)-6-amino-2,2-difluorocyclohexyl)-3-bromo-N-(but-2-yn-1-yl)-5-chlorothieno[3,2-b]pyridin-7-amine and 2-((1S,6R)-6-amino-2,2-difluorocyclohexyl)-3-bromo-N-(but-2-yn-1-yl)-5-chlorothieno[3,2-b]pyridin-7-amine [Compound 370] | 30 to 300 | 30 to 300
7 | 2-((1R,6S)-6-amino-2,2-difluorocyclohexyl)-N-(but-2-yn-1-yl)-5-chloro-3-iodothieno[3,2-b]pyridin-7-amine and 2-((1S,6R)-6-amino-2,2-difluorocyclohexyl)-N-(but-2-yn-1-yl)-5-chloro-3-iodothieno[3,2-b]pyridin-7-amine [Compound 383] | 30 to 300 | 30 to 300
8 | 2-((1S,2S)-2-aminocyclohexyl)-5-chloro-3-(fluoromethyl)-N-(thiophen-2-ylmethyl)thieno[3,2-b]pyridin-7-amine and 2-((1R,2R)-2-aminocyclohexyl)-5-chloro-3-(fluoromethyl)-N-(thiophen-2-ylmethyl)thieno[3,2-b]pyridin-7-amine [Compound 400] | 300 to 1000 | 300 to 1000
9 | 2-((1S,6S)-6-aminocyclohex-3-en-1-yl)-3-bromo-5-chloro-N-(thiophen-2-ylmethyl)thieno[3,2-b]pyridin-7-amine and 2-((1R,6R)-6-aminocyclohex-3-en-1-yl)-3-bromo-5-chloro-N-(thiophen-2-ylmethyl)thieno[3,2-b]pyridin-7-amine [Compound 256] | 30 to 300 | ≤ 30
10 | 2-((1S,6S)-6-aminocyclohex-3-en-1-yl)-5-chloro-N-(thiophen-2-ylmethyl)thieno[3,2-b]pyridin-7-amine [Compound 448] | > 1000 | 30 to 300
11 | 2-((2R,3R)-3-amino-5-methylenetetrahydro-2H-pyran-2-yl)-3-bromo-5-chloro-N-(thiophen-2-ylmethyl)thieno[3,2-b]pyridin-7-amine and 2-((2S,3S)-3-amino-5-methylenetetrahydro-2H-pyran-2-yl)-3-bromo-5-chloro-N-(thiophen-2-ylmethyl)thieno[3,2-b]pyridin-7-amine [Compound 259] | 30 to 300 | 30 to 300
12 | 2-((2R,3R)-3-aminobicyclo[3.2.1]octan-2-yl)-3-bromo-5-chloro-N-(thiophen-2-ylmethyl)thieno[3,2-b]pyridin-7-amine and 2-((2S,3S)-3-aminobicyclo[3.2.1]octan-2-yl)-3-bromo-5-chloro-N-(thiophen-2-ylmethyl)thieno[3,2-b]pyridin-7-amine [Compound 85] | > 1000 | > 1000
13 | 2-((2R,3R)-3-aminotetrahydro-2H-pyran-2-yl)-3-bromo-5-chloro-1-(difluoromethyl)-N-(thiophen-2-ylmethyl)-1H-pyrrolo[3,2-b]pyridin-7-amine and 2-((2S,3S)-3-aminotetrahydro-2H-pyran-2-yl)-3-bromo-5-chloro-1-(difluoromethyl)-N-(thiophen-2-ylmethyl)-1H-pyrrolo[3,2-b]pyridin-7-amine [Compound 224] | ≤ 30 | ≤ 30
14 | 2-((2R,3R)-3-aminotetrahydro-2H-pyran-2-yl)-5-chloro-3-iodo-N-(thiophen-2-ylmethyl)thieno[3,2-b]pyridin-7-amine and 2-((2S,3S)-3-aminotetrahydro-2H-pyran-2-yl)-5-chloro-3-iodo-N-(thiophen-2-ylmethyl)thieno[3,2-b]pyridin-7-amine [Compound 266] | 30 to 300 | 30 to 300
15 | 2-((2R,3R)-3-aminotetrahydro-2H-pyran-2-yl)-5-chloro-N-(2-fluorobenzyl)thieno[3,2-b]pyridin-7-amine and 2-((2S,3S)-3-aminotetrahydro-2H-pyran-2-yl)-5-chloro-N-(2-fluorobenzyl)thieno[3,2-b]pyridin-7-amine [Compound 28] | > 1000 | > 1000
16 | 2-((2R,3R)-3-aminotetrahydro-2H-pyran-2-yl)-5-chloro-N-(furan-2-ylmethyl)-3-methylthieno[3,2-b]pyridin-7-amine and 2-((2S,3S)-3-aminotetrahydro-2H-pyran-2-yl)-5-chloro-N-(furan-2-ylmethyl)-3-methylthieno[3,2-b]pyridin-7-amine [Compound 25] | 30 to 300 | 30 to 300
17 | 2-((2R,3R)-3-aminotetrahydro-2H-pyran-2-yl)-N-benzyl-5-chlorothieno[3,2-b]pyridin-7-amine and 2-((2S,3S)-3-aminotetrahydro-2H-pyran-2-yl)-N-benzyl-5-chlorothieno[3,2-b]pyridin-7-amine [Compound 26] | 300 to 1000 | 300 to 1000
